According to article PMC8701324, “Structural Insight into the Mechanism of PALB2 Interaction with MRG15” (Genes, 2021):
Where no end group is shown, it is not given here. The star is where a group is joined. 6xHis = N-terminal hexahistidine tag, N[C@@H](Cc1c[nH]cn1)C(=O)N[C@@H](Cc1c[nH]cn1)C(=O)N[C@@H](Cc1c[nH]cn1)C(=O)N[C@@H](Cc1c[nH]cn1)C(=O)N[C@@H](Cc1c[nH]cn1)C(=O)N[C@@H](Cc1c[nH]cn1)C(=O)*

How the values were obtained:
[1] = target: T1, MRG15 (MRG domain) (Homo sapiens, UniProt Q9UBU8); experiment: Fluorescence anisotropy competition assay: displacement of WT FAM-PALB2; format: binding; conditions: competition with WT FAM-PALB2, relative to WT
T1 construct: The MRG15 MRG domain, encompassing amino acids 155–323, was cloned into the pET28b^+-based pSMT3 vector; 6xHis-SUMO (N, cleaved yes); made in house; host or cells: E. coli BL21*
Protocol: For competition assays, mutant PALB2^597−630 peptides (Genscript Biotech, Piscataway, NJ, USA) were dissolved in DMSO and serially diluted from 10 µM to 0.6 nM in 20 µL of 25 mM HEPES pH 8.0, 1 mM TCEP, 10% DMSO, and 200 mM NaCl. A total of 40 nM MRG15 was mixed with 10 nM PALB2-FAM and incubated for 15 min at room temperature (RT). 20 µL of the MRG15 with FAM-PALB2 was then added to each well, resulting in a final concentration of […]. The total reaction volume was 40 µL. The plate was then shaken for 2 min and incubated for 15 min before the fluorescence anisotropy was measured as above. The inhibition constant Ki was calculated similarly to Kd (above).
Mutations of several residues in the MRG-binding region of PALB2 were found in breast cancer patients, including Asp616His, Pro615Ser and Pro621Thr mutations (Figure 5A,B). We analyzed the effect of these mutations on PALB2 interaction with MRG by a competition assay (Figure 5C,D). An MRG complex with 10 nM WT PALB2 peptide was formed, and the comparative affinity of mutants (Ki) was assayed by the dissociation rate of FAM-PALB2 from MRG15 upon titration by a mutant peptide. In addition, the contribution of core hydrophobic amino acids was assayed by alanine substitution. None of the peptides with a core hydrophobic amino acid substitution were able to compete with wtPALB2 binding. […] Substitution of Asp616 with histidine reduced the affinity by a factor of 2. […] Substitution of this proline in the middle of an α-helical turn may increase flexibility and result in a tighter binding of αH2 to the hydrophobic pocket of MRG.

[2] = target: T2, MRG15^155−323 (MRG domain) (Homo sapiens, UniProt Q9UBU8); experiment: Fluorescence anisotropy binding of FAM-PALB2 peptide
T2 construct: The MRG15 MRG domain, encompassing amino acids 155–323, was cloned into the pET28b^+-based pSMT3 vector; 6xHis-SUMO (N, cleaved yes); made in house; host or cells: E. coli BL21*
Protocol: Fluorescence anisotropy binding and competition assays were performed using black 384-well plates (Corning Inc., Corning, NY, USA) and a Synergy Neo2 plate reader (BioTek, Winooski, VT, USA). Binding assays were conducted by serially diluting the MRG15 fragment from 10 µM to 0.6 nM. A 40 µL solution of 20 µM MRG was serially diluted in 20 µL of 25 mM HEPES pH8.0, 1 mM TCEP, 10% DMSO, and 200 mM NaCl. A total of 20 µL of a 20 nM FAM-PALB2^597−630 solution was then added to each well for a final reaction volume of 40 µL and a final PALB2 concentration of 10 nM. The plate was shaken for 2 min and incubated for 15 min. Fluorescence anisotropy was measured with 485/20 nm excitation and 528/20 nm emission using Gen5.0 (BioTek) software. Kd was calculated with GraphPad Prism software by fitting the data with a non-linear regression analysis using a standard four-parameter logistic equation to identify Kd. […] R^2 is determined by the Prism software by computing the sum of the squares of the distances of the points from the best-fit curve determined by a nonlinear regression model.
Proteins interact with the MRG domain through a conserved FxLP motif. […] The binding affinity of this peptide to MRG15 was measured using the polarization anisotropy method with fluorescein-labeled PALB2^597−630 peptide (FAM-PALB2, Genscript Biotech, Piscataway, NJ, USA). […]

[3] = test system: MRG15^155−323; experiment: Ni-NTA pull-down of MRG15 by 6xHis-tagged PALB2 peptides; format: binding; conditions: preliminary qualitative experiment; Ni-NTA agarose, SDS-PAGE
Protocol: Ni-NTA beads (200 µL of 50% slurry) were equilibrated with Buffer B (25 mM HEPES pH 7.5, 10% glycerol, 2 mM CHAPS and 300 mM NaCl). 1 mL of PALB2 peptide at concentration 0.1 mg·mL^−1 was bound to Ni-NTA beads, and excess peptides were washed off with Buffer B (1 mL). A total of 1 mL of 0.1 mg·mL^−1 MRG15^155−323 was added to the beads and incubated for 30 min. Beads were washed 3 times with Buffer B with 20 mM imidazole. Protein complexes were eluted with Buffer B with 250 mM imidazole. MRG15^155−323 alone, mixed with Ni-NTA beads without any peptide bound, was used as control to eliminate non-specific binding. Samples were analyzed by SDS-PAGE.
Proteins interact with the MRG domain through a conserved FxLP motif. All known structures of MRG complexes reveal significant contributions to the binding of extended regions up- and downstream of the FxLP motif. Flanking regions have low sequence and structural conservation, making it challenging to predict which regions of PALB2 around the FQLP sequence motif (amino acids 612–615) are involved in the interaction. […] The binding affinity of this peptide to MRG15 was measured using the polarization anisotropy method with fluorescein-labeled PALB2^597−630 peptide (FAM-PALB2, Genscript Biotech, Piscataway, NJ, USA). […]

T1 sequence (Q9UBU8 194-362): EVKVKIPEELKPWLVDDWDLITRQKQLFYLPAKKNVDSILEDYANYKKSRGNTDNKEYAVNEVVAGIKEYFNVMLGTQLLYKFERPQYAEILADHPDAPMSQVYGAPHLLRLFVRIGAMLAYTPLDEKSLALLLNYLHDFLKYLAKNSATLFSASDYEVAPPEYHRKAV
T2 sequence (Q9UBU8 194-362): as above

Substance: MLSLKQLLSFLSITDFQLPHEDFGPLKLEKVKSC [D616H]
- factor by which affinity is reduced vs WT ([1]; 'by a factor of'): 2

Substance: MLSLKQLLSFLSITDFQLPDEDFGTLKLEKVKSC [P621T]
- effect on binding affinity [1]: increased the binding affinity

Substance: MLSLKQLLSFLSITDFQLSDEDFGPLKLEKVKSC [P615S]
- reduction in binding affinity vs WT [1]: 5 fold

Substance: 597 630: PALB2 fragment encompassing amino acids 597–630 with the N-terminal 6xHis tag; crystallized with MRG15 (PDB ID 7S4A) (6xHis-MLSLKQLLSFLSITDFQLPDEDFGPLKLEKVKSC)
- binding affinity to MRG domain [2]: nanomolar affinity
- complex formation with MRG15 in pull-down [3]: sufficient for the formation of a stable complex
